In patent US5939458A, “Reduction of hair growth” (priority 1997, dated 1999):
One block for each molecule: values may come before it.

Tests used:
flank organ hair growth = assay: Golden Syrian hamster assay (flank organ hair mass after thirteen topical applications); type: in vivo
Description: Male intact Golden Syrian hamsters are considered acceptable models for human beard hair growth in that they display oval shaped flank organs, one on each side, each about 8 mm. in major diameter, which grow thick black and coarse hair similar to human beard hair. These organs produce hair in response to androgens in the hamster. To evaluate the effectiveness of a composition including an aminoacyl-tRNA synthetase inhibitor, the flank organs of each of a group of hamsters are shaved. To one organ of each animal 10 μl. of vehicle alone once a day is applied, while to the other organ of each animal an equal amount of vehicle containing a aminoacyl-tRNA inhibitor is applied. After thirteen applications (one application per day for five days a week), the flank organs are shaved and the amount of recovered hair (hair mass) from each is weighed. Percent-reduction of hair growth is calculated by subtracting the hair mass (mg) value of the test compound treated side from the hair mass value of the vehicle treated side; the delta value obtained is then divided by the hair mass value of the vehicle treated side, and the resultant number is multiplied by 100.
The above-described assay will be referred to herein as the "Golden Syrian hamster" assay. Preferred compositions provide a reduction in hair growth of at least about 25%, more preferably at least about 50%, and most preferably at least about 60% when tested in the Golden Syrian hamster assay.

[1] = test system: Leucine tRNA synthetase (hair follicle extract); assay: Hair follicle aminoacyl-tRNA synthetase inhibition, 14C leucine incorporation; type: biochemical; conditions: 0.96 μmole/ml inhibitor (leucinamide: similar concentration); 37° C., 60 minutes
Protocol: Inhibition of hair follicle aminoacyl-tRNA synthetase was determined using a modification of the procedure described by Hampel et. al (Aminoacyl-tRNASynthetases from Cultured CHO Cells (1979) Methods in Enzymology, Vol. LIX, pp 229-234). A reaction mixture containing the following was used for each assay: 50 mM Tris (pH 7.4), 15 mM MgCl2, 0.5 mM EDTA (adjusted to pH 7), 5 mM ATP (adjusted to pH 7, 0.35 mM CTP, 20 μM ^14 C amino acid and tRNA (50 μg/ml). Leucine and serine tRNA synthetase were assayed with a pH 8.6 buffer and a MgCl2 concentration of 8 mM. The reaction mixture is mixed with the hair follicle extract so that the final assay volume is 100 μl. Typically, 90-95 μl of the reaction mixture was mixed with 5-10 μl of the hair follicles extract. The reaction was carried out at 37° C. for 60 minutes. The reaction was terminated by removing the reaction mixture and placing it on a piece of filter paper that had been soaked with 10% trichloroacetic acid. The filter paper was washed 3 times in 10% trichloroacetic acid and 3 times in 5% trichloroacetic acid. The filter paper was dried and the insoluble radioactivity, corresponding to the ^14 C-aminoacyl-tRNA, was counted in a scintillation counter.
The incorporation of the ^14 C amino acid varied from 178 dpm/mM to 3,093 dpm/mM in the assays of the amino acids mentioned above. […]

[2] = Table 2 dose response, dose 1%, pH 5.5, vehicle 90% H2O, 6% dipropylene glycol, 4% ethanol
[3] = Table 2 dose response, dose 5%, pH 6.5, vehicle 90% H2O, 6% dipropylene glycol, 4% ethanol
[4] = Table 2 dose response, dose 7.5%, pH 6.5, vehicle 90% H2O, 6% dipropylene glycol, 4% ethanol
[5] = Table 1, dose 15%, vehicle B, pH 6.5

SMILES: N[C@@H](CSC(c1ccccc1)(c1ccccc1)c1ccccc1)C(=O)O [S-trityl-L-cysteine]
% Inhibition of hair growth (flank organ hair growth; [2]): 35 ± 9%
Treated (mg) hair mass (flank organ hair growth; [2]): 0.88 ± .10 mg
% Inhibition of hair growth (flank organ hair growth; [3]): 56 ± 6%
Treated (mg) hair mass (flank organ hair growth; [3]): 0.90 ± .17 mg
% Inhibition of hair growth (flank organ hair growth; [4]): 80 ± 6%
Treated (mg) hair mass (flank organ hair growth; [4]): 0.35 ± .10 mg
Dose response of hair growth reduction (flank organ hair growth; increasing the concentration of the inhibitor in the composition): increased hair growth reduction

SMILES: CSCCC(C)(N)C(=O)O (racemic) [α-methyl-DL-methionine]
% Inhibition of hair growth (flank organ hair growth; [5]): 31 ± 7%
Treated (mg) hair mass (flank organ hair growth; [5]): 1.10 ± .15 mg

inhibition of leucine incorporation [1]: 18%
SMILES: CC(C)C[C@H](N)CO [L-leucinol]

inhibition of leucine incorporation [1]: 83%
SMILES: CC(C)CC(N)C(N)=O (centres unmarked) [lucinamide]
